From patent publication US6974837B2, “Compositions comprising sibutramine metabolites in combination with phosphodiesterase inhibitors” (Sepracor Inc., priority 1999, dated 2005)
Read-outs that look alike come from different tables or passages of the source.

Experiments:
[1] = molecular target: nonselective muscarinic receptor; test: Binding at the nonselective muscarinic receptor; parameters: species or system rat; conditions: for IC50: rat cerebral cortex
[2] = molecular target: human recombinant norepinephrine (NE) uptake site (Homo sapiens, UniProt P23975); test: Binding at the norepinephrine (NE) uptake site
[3] = molecular target: serotonin (5-HT) uptake site (Rattus norvegicus, UniProt P31652)
[4] = human recombinant NE uptake site, read-out: Binding IC50 NE Uptake

human recombinant norepinephrine (NE) uptake site, sequence (P23975 whole entry): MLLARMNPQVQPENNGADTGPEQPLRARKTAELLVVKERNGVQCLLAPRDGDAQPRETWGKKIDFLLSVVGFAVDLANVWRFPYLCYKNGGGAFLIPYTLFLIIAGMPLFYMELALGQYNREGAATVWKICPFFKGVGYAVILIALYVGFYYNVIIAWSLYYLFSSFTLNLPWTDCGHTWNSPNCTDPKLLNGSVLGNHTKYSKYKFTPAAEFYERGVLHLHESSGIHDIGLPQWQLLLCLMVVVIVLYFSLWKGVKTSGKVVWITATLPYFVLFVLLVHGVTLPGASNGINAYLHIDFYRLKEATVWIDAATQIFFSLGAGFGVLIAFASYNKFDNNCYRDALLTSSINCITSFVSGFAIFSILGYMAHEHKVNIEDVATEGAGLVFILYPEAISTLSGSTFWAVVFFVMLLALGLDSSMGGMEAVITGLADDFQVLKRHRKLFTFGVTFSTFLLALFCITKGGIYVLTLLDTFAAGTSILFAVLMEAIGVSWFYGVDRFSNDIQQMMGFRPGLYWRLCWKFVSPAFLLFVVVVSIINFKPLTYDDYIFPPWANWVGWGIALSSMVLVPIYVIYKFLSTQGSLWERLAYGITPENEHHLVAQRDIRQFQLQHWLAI
serotonin (5-HT) uptake site, sequence (P31652 whole entry): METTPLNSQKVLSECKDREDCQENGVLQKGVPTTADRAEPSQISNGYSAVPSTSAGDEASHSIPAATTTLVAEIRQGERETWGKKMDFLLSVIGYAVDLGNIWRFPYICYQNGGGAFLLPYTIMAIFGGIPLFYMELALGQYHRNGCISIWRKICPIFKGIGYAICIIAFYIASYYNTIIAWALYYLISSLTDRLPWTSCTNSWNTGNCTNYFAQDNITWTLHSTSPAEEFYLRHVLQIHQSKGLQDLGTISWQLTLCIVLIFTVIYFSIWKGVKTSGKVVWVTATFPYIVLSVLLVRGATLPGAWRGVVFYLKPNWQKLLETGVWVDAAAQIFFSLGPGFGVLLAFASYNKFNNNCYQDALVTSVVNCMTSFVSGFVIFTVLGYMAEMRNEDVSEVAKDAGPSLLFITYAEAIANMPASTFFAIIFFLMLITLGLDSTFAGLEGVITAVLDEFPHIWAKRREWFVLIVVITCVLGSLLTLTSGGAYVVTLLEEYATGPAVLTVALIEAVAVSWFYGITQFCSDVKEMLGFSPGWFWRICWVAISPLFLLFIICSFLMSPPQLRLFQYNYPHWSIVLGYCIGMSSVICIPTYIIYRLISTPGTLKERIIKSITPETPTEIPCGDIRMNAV

CNC(CC(C)C)C1(c2ccc(Cl)cc2)CCC1 (racemic) [(R/S)-desMe, 1-(4-chlorophenyl)-N-methyl-2-(2-methylpropyl)-cyclobutanamethamine]
IC50 [1]: 1170 nM | IC50 [2]: 10 nM

CN[C@H](CC(C)C)C1(c2ccc(Cl)cc2)CCC1 [(R)-desMe]
affinity / activity at muscarinic site (in words) [1]: negligible activity | NE uptake site binding / inhibition (in words) [2]: potent inhibitors | IC50 [2, 4]: 4 nM | 5-HT uptake site binding / inhibition (in words) [3]: potent inhibitors

CC(C)C[C@@H](N)C1(c2ccc(Cl)cc2)CCC1 [(R)-didesMe]
affinity / activity at muscarinic site (in words) [1]: negligible activity | NE uptake site binding / inhibition (in words) [2]: potent inhibitors | IC50 [2, 4]: 13 nM | 5-HT uptake site binding / inhibition (in words) [3]: potent inhibitors

CN[C@@H](CC(C)C)C1(c2ccc(Cl)cc2)CCC1 [(S)-desMe]
IC50 [1]: 654 nM | IC50 [2]: 870 nM

CN1[C@@H]2CC[C@H]1C[C@@H](OC(=O)C(CO)c1ccccc1)C2 (stereo partly shown) [Atropine, reference compound]
IC50 [1]: 0.31 nM
